Holding throughout (assay): HDAC Enzymatic Assay
Holding throughout (conditions): pH 7.4

Experiment [1] deals with Histone deacetylase 2 (Homo sapiens, UniProt Q92769). On the procedure:
(§1) Briefly, this fluorogenic assays uses an acetylated lysine tripeptide substrate, amide-linked to a fluorescently quenched aminocoumarin (AMC). Enzyme reactions were run in 50 mM HEPES, 100 mM KCl, 0.001% (v/v) Tween-20, 0.05% (w/v) BSA, pH 7.4. The appropriate substrate concentration for each HDAC was determined using their corresponding Km values. Km values were determined by monitoring the increase of fluorescence of each HDAC at varying substrate concentrations. The increase in fluorescence units was plotted versus substrate concentration. Assays corresponding to HDACs 4, 5, 7, 8, 9 involved a trifluoroacetylated lysine substrate as described in Bradner et al, while HDACs 1, 2, 3, and 6 used an acetyl-Leu-Gly-acetyl-Lys tripeptide as the substrate. Reactions were carriedout in 384-well plates and fluorescence was measured using a multi-label plate reader and plate stacker (Envision, Perkin-Elmer).

Experiment [2] deals with Histone deacetylase 4 (Homo sapiens, UniProt P56524). How it is done: as §1
Histone deacetylase 4, sequence (P56524 whole entry): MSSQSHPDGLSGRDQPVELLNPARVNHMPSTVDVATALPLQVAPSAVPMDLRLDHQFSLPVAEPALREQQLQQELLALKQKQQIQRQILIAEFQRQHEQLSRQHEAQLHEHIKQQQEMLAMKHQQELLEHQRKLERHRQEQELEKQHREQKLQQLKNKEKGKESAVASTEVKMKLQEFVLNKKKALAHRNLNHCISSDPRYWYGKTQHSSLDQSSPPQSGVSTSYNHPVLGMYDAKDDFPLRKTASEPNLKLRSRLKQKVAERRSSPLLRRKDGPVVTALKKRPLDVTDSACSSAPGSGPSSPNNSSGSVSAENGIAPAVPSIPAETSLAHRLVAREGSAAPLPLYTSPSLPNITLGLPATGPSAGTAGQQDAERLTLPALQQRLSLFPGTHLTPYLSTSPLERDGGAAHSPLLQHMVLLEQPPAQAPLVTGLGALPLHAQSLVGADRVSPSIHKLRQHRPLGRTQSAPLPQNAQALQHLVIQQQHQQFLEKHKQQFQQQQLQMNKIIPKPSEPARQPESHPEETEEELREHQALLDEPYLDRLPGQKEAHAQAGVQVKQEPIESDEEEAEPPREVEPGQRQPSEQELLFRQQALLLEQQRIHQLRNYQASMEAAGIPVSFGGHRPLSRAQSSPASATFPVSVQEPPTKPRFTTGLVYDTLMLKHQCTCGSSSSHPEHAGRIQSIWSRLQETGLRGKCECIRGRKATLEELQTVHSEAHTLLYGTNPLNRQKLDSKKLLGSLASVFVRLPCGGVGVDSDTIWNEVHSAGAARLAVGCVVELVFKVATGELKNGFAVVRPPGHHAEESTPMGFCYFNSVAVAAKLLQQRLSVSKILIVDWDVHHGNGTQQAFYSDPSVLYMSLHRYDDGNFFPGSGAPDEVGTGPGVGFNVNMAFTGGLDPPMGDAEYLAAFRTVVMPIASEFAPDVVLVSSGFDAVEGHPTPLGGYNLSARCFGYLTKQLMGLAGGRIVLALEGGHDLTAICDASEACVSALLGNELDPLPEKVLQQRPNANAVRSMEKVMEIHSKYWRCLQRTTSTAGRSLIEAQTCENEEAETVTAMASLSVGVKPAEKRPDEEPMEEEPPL
Experiment [3] has as its target Histone deacetylase 1 (Homo sapiens, UniProt Q13547). How it is done: as §1
Experiment [4] deals with Histone deacetylase 9 (Homo sapiens, UniProt Q9UKV0). How it is done: as §1
Histone deacetylase 9, sequence (Q9UKV0 whole entry): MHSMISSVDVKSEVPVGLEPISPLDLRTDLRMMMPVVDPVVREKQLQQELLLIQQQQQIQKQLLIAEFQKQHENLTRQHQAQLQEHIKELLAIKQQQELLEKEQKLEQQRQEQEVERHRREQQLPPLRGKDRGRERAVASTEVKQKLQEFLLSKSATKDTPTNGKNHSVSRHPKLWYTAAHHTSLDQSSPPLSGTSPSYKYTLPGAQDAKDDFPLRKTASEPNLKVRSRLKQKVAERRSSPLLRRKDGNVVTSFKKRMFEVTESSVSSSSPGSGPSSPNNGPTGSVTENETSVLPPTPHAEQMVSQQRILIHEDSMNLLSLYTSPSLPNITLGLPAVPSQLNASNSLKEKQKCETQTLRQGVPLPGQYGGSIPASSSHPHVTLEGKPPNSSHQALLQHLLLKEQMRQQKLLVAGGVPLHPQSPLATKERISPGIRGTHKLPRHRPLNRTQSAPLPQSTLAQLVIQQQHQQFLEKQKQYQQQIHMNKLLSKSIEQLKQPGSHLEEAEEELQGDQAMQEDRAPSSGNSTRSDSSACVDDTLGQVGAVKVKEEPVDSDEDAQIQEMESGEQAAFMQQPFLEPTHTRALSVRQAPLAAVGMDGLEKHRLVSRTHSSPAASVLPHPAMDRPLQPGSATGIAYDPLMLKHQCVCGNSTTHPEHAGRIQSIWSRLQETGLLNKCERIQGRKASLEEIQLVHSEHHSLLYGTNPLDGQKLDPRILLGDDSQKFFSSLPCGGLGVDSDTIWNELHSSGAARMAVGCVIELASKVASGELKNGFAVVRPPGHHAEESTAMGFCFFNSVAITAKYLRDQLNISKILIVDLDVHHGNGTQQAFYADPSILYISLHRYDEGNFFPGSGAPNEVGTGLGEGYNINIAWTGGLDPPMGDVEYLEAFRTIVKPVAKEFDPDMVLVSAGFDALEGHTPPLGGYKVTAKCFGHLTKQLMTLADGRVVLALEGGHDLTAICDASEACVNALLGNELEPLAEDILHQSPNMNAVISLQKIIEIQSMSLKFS
For experiment [5], the target named is T1, Histone deacetylase 7 (Homo sapiens, UniProt Q8WUI4).
T1 sequence (Q8WUI4 whole entry): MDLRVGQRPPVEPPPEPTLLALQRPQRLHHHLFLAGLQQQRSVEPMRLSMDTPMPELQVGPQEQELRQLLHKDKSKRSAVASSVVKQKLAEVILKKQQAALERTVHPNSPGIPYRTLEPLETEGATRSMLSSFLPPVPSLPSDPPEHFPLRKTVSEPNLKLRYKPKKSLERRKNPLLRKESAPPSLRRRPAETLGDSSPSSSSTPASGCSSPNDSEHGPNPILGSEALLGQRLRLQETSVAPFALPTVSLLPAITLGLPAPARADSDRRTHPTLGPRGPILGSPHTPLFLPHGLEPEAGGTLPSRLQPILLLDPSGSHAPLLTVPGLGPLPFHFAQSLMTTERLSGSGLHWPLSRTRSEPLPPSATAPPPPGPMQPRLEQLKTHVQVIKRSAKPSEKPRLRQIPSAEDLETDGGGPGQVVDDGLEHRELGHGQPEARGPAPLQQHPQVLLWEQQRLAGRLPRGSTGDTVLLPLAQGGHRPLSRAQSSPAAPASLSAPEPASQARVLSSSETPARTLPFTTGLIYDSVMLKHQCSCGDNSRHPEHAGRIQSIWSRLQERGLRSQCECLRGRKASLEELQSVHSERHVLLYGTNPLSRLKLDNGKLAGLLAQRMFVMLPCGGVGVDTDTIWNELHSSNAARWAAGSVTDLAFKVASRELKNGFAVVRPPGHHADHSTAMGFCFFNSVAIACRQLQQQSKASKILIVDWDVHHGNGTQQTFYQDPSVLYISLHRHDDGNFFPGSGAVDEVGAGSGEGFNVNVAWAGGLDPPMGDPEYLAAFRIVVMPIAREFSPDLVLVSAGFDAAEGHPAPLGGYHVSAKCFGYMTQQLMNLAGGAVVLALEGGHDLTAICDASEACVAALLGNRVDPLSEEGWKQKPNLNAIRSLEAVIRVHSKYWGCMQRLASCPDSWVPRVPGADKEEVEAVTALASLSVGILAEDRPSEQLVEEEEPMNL
On the procedure: as §1

The target of experiment [6] is Histone deacetylase 5 (Homo sapiens, UniProt Q9UQL6). On the procedure: as §1
Histone deacetylase 5, sequence (Q9UQL6 whole entry): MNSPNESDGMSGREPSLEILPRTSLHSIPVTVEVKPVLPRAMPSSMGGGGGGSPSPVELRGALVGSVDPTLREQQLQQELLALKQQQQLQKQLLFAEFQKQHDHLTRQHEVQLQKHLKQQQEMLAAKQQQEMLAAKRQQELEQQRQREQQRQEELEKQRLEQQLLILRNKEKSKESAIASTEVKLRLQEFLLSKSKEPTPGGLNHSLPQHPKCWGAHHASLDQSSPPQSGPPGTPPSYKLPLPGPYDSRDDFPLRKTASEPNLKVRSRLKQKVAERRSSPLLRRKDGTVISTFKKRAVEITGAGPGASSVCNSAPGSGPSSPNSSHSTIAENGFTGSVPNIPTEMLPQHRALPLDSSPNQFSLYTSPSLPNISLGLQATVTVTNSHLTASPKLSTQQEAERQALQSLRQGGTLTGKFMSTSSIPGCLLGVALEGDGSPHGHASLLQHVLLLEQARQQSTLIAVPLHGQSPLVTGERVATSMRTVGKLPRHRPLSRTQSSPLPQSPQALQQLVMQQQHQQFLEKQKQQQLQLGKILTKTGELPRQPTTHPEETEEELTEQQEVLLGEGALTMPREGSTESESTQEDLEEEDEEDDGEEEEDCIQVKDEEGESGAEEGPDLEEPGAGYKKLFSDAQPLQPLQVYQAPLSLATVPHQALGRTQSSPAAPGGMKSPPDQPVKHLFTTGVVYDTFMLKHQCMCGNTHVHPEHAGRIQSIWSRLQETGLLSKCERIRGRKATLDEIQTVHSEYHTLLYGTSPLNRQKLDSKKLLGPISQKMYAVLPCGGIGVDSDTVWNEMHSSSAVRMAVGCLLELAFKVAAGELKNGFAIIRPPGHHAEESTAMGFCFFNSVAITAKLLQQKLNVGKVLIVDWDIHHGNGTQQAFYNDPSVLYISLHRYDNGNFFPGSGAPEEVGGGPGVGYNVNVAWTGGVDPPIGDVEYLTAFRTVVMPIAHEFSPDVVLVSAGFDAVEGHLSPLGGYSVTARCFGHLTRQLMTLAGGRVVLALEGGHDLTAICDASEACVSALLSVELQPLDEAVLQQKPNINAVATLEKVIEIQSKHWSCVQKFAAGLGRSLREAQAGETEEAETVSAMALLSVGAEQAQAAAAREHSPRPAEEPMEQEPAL
Experiment [7] addresses Histone deacetylase 8 [R223M] (Homo sapiens, UniProt Q9BY41, R223M). How it is done:
as §1

The target of experiment [8] is Histone deacetylase 3 (Homo sapiens, UniProt O15379). How it is done:
as §1

Histone deacetylase 3, sequence (O15379 whole entry): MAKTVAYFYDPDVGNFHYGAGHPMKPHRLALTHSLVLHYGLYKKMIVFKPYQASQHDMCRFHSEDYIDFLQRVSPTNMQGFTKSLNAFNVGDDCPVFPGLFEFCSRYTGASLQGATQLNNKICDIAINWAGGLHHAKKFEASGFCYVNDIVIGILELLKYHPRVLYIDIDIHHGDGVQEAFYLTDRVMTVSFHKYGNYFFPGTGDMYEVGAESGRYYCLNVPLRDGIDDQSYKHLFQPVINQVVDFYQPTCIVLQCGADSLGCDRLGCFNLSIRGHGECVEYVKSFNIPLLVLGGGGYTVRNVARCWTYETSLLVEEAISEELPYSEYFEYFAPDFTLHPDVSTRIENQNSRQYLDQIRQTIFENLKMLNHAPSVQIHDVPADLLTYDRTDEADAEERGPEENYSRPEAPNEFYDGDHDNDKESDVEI
Histone deacetylase 2, sequence (Q92769 whole entry): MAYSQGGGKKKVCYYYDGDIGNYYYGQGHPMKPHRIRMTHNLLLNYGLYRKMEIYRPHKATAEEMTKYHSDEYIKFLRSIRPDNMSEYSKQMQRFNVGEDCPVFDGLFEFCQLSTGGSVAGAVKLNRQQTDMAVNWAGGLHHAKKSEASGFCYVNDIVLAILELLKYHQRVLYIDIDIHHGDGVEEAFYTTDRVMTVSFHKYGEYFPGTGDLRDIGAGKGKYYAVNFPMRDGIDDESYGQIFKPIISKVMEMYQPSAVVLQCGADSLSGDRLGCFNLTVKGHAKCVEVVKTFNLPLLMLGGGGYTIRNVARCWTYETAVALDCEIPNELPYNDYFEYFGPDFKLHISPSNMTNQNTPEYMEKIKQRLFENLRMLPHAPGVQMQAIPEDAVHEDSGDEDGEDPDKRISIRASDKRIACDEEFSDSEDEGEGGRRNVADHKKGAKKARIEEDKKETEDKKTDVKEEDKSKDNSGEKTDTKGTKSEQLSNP
Histone deacetylase 8 [R223M], sequence (Q9BY41 whole entry R223W): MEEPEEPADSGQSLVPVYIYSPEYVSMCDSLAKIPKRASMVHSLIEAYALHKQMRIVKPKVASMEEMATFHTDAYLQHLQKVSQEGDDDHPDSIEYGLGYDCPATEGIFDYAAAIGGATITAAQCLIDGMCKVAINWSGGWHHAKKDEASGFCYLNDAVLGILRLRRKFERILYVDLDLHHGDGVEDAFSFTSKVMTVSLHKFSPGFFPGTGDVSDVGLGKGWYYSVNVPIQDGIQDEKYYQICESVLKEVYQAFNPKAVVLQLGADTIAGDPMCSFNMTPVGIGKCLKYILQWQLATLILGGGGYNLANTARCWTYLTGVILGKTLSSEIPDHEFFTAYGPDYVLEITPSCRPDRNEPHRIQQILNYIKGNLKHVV
Histone deacetylase 1, sequence (Q13547 whole entry): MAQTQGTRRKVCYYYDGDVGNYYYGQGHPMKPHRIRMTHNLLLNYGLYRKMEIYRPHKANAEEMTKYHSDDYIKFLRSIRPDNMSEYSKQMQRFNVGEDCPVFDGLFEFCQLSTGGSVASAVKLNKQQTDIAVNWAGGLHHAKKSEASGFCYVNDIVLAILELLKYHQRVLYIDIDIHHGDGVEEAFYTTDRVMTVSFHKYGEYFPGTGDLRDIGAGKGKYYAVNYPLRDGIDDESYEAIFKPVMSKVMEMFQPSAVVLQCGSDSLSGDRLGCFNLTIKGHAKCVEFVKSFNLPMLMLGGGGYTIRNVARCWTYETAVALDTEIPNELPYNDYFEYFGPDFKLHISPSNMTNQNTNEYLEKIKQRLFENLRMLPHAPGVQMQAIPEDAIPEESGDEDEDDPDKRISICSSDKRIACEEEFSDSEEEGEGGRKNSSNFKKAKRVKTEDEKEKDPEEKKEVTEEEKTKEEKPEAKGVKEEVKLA

As usually defined, the IC50 is the concentration that gives 50% inhibition. Read a low IC50 as greater potency. Take `CCN1CCN(C(c2cccnc2)c2cc(Cl)c3cccnc3c2O)CC1` (stereo not drawn) [5-chloranyl-7-[(4-ethylpiperazin-1-yl)-pyridin-3-yl-methyl]quinolin-8-ol]: the IC50 in experiment [1] turned out to be 67.2 µM; in experiment [2], 13.8 µM; in experiment [3], 40.4 µM; in experiment [4], 1.88 µM; in experiment [5], 8.44 µM; in experiment [6], 0.85 µM. The IC50 in experiment [7] is 3.89 µM; in experiment [8], 65.1 µM.

The values above are taken from BindingDB's records for doi:10.1021/acschembio.6b00012 (Broad Institute, 2016).
